Experiments:
Assay in all cases: relative viability (nuclei count vs DMSO), 5 days (fraction); higher = more cells survive
[1] = compound: CC(C)(C)c1cc(NC(=O)Nc2ccc(-c3cn4c(n3)sc3cc(OCCN5CCOCC5)ccc34)cc2)no1 [Quizartinib] + COc1cc2c(Oc3ccc(NC(=O)C4(C(=O)Nc5ccc(F)cc5)CC4)cc3F)ccnc2cc1OCCCN1CCOCC1 [Foretinib] (partner 0.25 µM)
Procedure, shortened: (§1)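 Dosing by pin tool came one day after lung cancer cell lines were seeded in 1536-well plates, using either one drug or a fixed anchor-drug dose plus five library-drug doses (not always all listed) in √10 steps. After 5 days, nuclei were counted on 4× images. Relative viability is treated-well nuclei count divided by vehicle-well nuclei count, and values are medians of duplicate plates.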

[2] = compound: COCC[n+]1c2c(n(Cc3cnccn3)c1C)C(=O)c1ccccc1C2=O [YM155] + COc1cccc2cc(-c3nc([C@H]4CC[C@H](C(=O)O)CC4)n4ncnc(N)c34)[nH]c12 [OSI-027] (partner 0.5 µM)
Procedure, shortened: as §1

[3] = compound: COCC[n+]1c2c(n(Cc3cnccn3)c1C)C(=O)c1ccccc1C2=O [YM155] + Nc1nc2[nH]cc(CCc3ccc(C(=O)N[C@@H](CCC(=O)O)C(=O)O)cc3)c2c(=O)[nH]1 [Pemetrexed] (partner 0.2 µM)
Procedure, shortened: as §1

[4] = compound: COCC[n+]1c2c(n(Cc3cnccn3)c1C)C(=O)c1ccccc1C2=O [YM155] + CS(=O)(=O)CCNCc1ccc(-c2ccc3ncnc(Nc4ccc(OCc5cccc(F)c5)c(Cl)c4)c3c2)o1 [Lapatinib] (partner 2 µM)
Procedure, shortened: as §1

Cell Line | relative viability ([1]; first compound 0.001 µM) | relative viability ([1]; first compound 0.003162 µM) | relative viability ([1]; first compound 0.01 µM) | relative viability ([1]; first compound 0.03162 µM) | relative viability ([1]; first compound 0.1 µM) | relative viability ([2]; first compound 0.002 µM) | relative viability ([2]; first compound 0.006325 µM) | relative viability ([2]; first compound 0.02 µM) | relative viability ([2]; first compound 0.06325 µM) | relative viability ([3]; first compound 0.002 µM) | relative viability ([3]; first compound 0.006325 µM) | relative viability ([3]; first compound 0.02 µM) | relative viability ([3]; first compound 0.06325 µM) | relative viability ([4]; first compound 0.006325 µM) | relative viability ([4]; first compound 0.02 µM) | relative viability ([4]; first compound 0.06325 µM) | relative viability ([4]; first compound 0.002 µM)
NCI-H2342 | 0.965 | 0.938 | 1.11 | 1 | 0.988 | 0.555 | 0.701 | 0.666 | 0.623 | 0.75 | 0.742 | 0.764 | 0.788 |  |  |  | 
CAL-12T | 0.781 | 1.1 | 1.14 | 0.935 | 1.22 | 0.657 | 0.619 | 0.746 | 0.529 | 1.23 | 1.22 | 1.11 | 0.569 | 0.768 | 0.61 | 0.588 | 
NCI-H1395 | 0.961 | 0.971 | 1.02 | 0.995 | 1.03 | 0.579 | 0.665 | 0.684 | 0.705 | 0.857 | 0.737 | 1.03 | 0.906 | 1.05 | 1.25 | 1.13 | 1.06
NCI-H1299 | 1.06 | 1.05 | 1.14 | 1.05 | 1.12 |  |  |  |  |  |  |  |  | 0.962 | 0.908 | 0.176 | 0.949
NCI-H1703 | 0.514 | 0.35 | 0.371 | 0.406 | 0.282 |  |  |  |  |  |  |  |  | 0.982 | 0.452 | 0.179 | 1.11
HCC-15 |  | 0.978 | 0.979 |  | 0.952 | 0.693 | 0.758 | 0.721 | 0.534 | 0.239 | 0.229 | 0.23 | 0.242 | 0.911 | 0.868 | 0.69 | 0.802
SW 900 | 0.802 | 0.85 |  | 0.882 | 0.836 | 0.544 | 0.501 | 0.557 | 0.478 |  | 0.492 | 0.489 | 0.47 |  |  |  | 
NCI-H661 | 0.963 | 0.945 | 1.13 | 0.994 | 1.01 | 0.703 | 0.722 | 0.708 | 0.308 | 0.935 | 0.961 | 0.919 | 0.485 | 0.575 | 0.575 | 0.421 | 0.522
NCI-H647 | 0.818 | 1.09 | 1.1 | 1.16 | 1.17 | 0.812 | 0.736 | 0.762 | 0.483 | 0.189 | 0.171 | 0.173 | 0.164 | 1.08 | 0.799 | 0.405 | 1.13
H3255 | 0.874 | 0.84 | 1.14 | 1.07 | 0.763 | 0.577 | 0.56 | 0.652 | 0.569 | 0.587 | 0.627 | 0.565 | 0.566 | 0.241 | 0.265 | 0.263 | 0.24
NCI-H2405 | 0.96 | 1.04 | 1.03 | 1.05 | 1.07 | 0.625 | 0.613 | 0.616 | 0.465 | 0.886 | 0.961 | 0.914 | 0.452 | 0.816 | 0.786 | 0.34 | 1.03
NCI-H1666 | 0.749 | 0.925 | 1.03 | 0.783 | 1.02 | 0.767 | 0.911 | 0.859 | 0.841 | 0.837 | 0.881 | 0.854 | 0.868 |  | 0.77 | 0.562 | 0.629
NCI-H650 | 1.02 | 1.04 | 1.16 | 0.978 | 1.18 | 0.503 | 0.542 | 0.572 | 0.52 | 0.834 | 0.744 | 0.966 | 1.08 | 0.929 | 0.785 | 0.707 | 0.84
COR-L23 | 0.979 | 0.856 | 1.06 | 0.973 | 1.02 | 0.692 | 0.735 | 0.488 | 0.132 | 0.194 | 0.198 | 0.18 | 0.136 | 0.917 | 0.503 | 0.15 | 0.837
NCI-H1734 | 0.693 | 0.776 | 0.933 | 0.862 | 0.802 | 0.599 | 0.586 | 0.616 | 0.684 | 0.375 | 0.404 | 0.399 | 0.452 | 1.08 | 1.13 | 0.969 | 1.09
UMC-11 |  | 0.972 | 1.17 | 0.957 | 1.1 | 0.465 | 0.499 | 0.514 | 0.465 | 0.817 | 0.823 | 0.878 | 0.802 | 0.964 | 0.994 | 0.93 | 0.846
NCI-H596 | 0.925 | 0.816 | 0.949 | 0.903 | 0.754 | 0.735 | 0.806 | 0.743 | 0.85 | 0.429 | 0.485 | 0.532 | 0.499 | 1.11 | 1.09 | 1.06 | 
NCI-H2228 | 0.927 | 0.954 | 1.01 | 0.715 | 1.02 | 0.612 | 0.689 | 0.605 | 0.713 | 0.329 | 0.318 | 0.332 | 0.326 | 1.16 | 0.988 | 0.998 | 0.856
EPLC-272H | 0.535 | 0.685 | 0.75 | 0.682 | 0.669 | 0.287 | 0.312 | 0.286 | 0.251 | 0.327 | 0.309 | 0.316 | 0.319 | 0.854 | 0.941 | 0.949 | 1.05
RERF-LC-KJ | 0.844 | 0.828 | 0.888 | 0.926 | 0.804 | 0.663 | 0.637 | 0.618 | 0.633 | 0.487 | 0.467 | 0.487 | 0.471 | 0.853 | 0.88 | 0.821 | 0.755

— the supplement of paper PMC10307832
